Columns and labels:
GLP-1R [1] = settings: cited from earlier work
Excerpt: Firstly, the hypoglycemic effect of N55 during IPGTT of non-fasted mice requires functional GLP-1R signaling. Secondly, although N55 could not affect the plasma glucose in fasted mice whose endogenous GLP-1 are relatively low (Fig. 2a). […] Thirdly, the hypoglycemic effect and potentiation of insulinotropic effect of GLP-1 required the functional s ... || (+ 1 further places)

fasted mice = assay: IPGTT, fasted mice (plasma glucose, glucose AUC0–120); assay type: in vivo, Female C57BL/6 mice
Excerpt: All animal procedures were approved by the Institute of Biomedical Sciences Animal Care and Use Committee (Academia Sinica, Taiwan). The Experimental Animal Committee, Academia Sinica, Taiwan approved all animal experimental procedures. All animals were carefully looked after to ensure that their welfare were well looked after. Additionally, all the experimental procedures and the reagents used in this manuscript have been approved by The Ethic Committee, Academia Sinica. All methods were performed in accordance with the relevant guidelines and regulations by the Institute of Biomedical Sciences Animal Care and Use Committee (Academia Sinica, Taiwan) and The Ethic Committee (Academia Sinica, Taiwan). Female C57BL/6 mice (BioLAS CO, Yi-Lan Breeding Center, Taiwan) aged 8–12 weeks were housed on a 12-h light/12-h dark cycle and provided with food and water ad libitum. The mice were fed with the standard chow (PicoLab Rodent Diet 5053, LabDiet, St. Louis, MO, USA) diet which consisted of 13.2% fat, 24.7% protein, and 62.1% carbohydrates as a source of calories.
All experiments were performed at approximately 1 PM. For the fasted mice, standard chow was removed away at 9 AM on the day of the IPGTT, but were provided water ad libitum for 4 h prior to the beginning of the test. All the administered materials were dissolved in isotonic sodium chloride solution (0.9% sodium chloride) containing 5% ethanol. Vehicle, N55, GLP-1′, [Aib8, E22, E30]-GLP-1(7–36) amide, Ex-4 or Ex-9 alone or in combination were administered by i.p. injection 15 min before D-(+)-glucose (2 g/kg of body weight) i.p. administration. Blood samples were drawn from the tail vein right before glucose loading (time 0) and at 15, 30, 60, 90 and 120 min after glucose administration. Plasma glucose was monitored using a glucometer (Accu-Check Performa, Roche, Basel, Switzerland). Glucose AUC0–120 was calculated during the 120-min time interval from IPGTT results. Glucose AUC0–120 was obtained using the formula AUC0–120 = [15 × (G0 + G15)/2] + [15 × (G15 + G30)/2] + [30 × (G30 + G60)/2] + [30 × (G60 + G90)/2] + [30 × (G90 + G120)/2] where G0, G15, G30, G60, G90 and G120 were blood glucose level at each time point during IPGTT. The decrease in plasma glucose was calculated by subtracting the plasma glucose in the presence of indicated reagent from that in the absence of indicated reagent; ∆ Plasma Glucose (mmol/l) = [plasma glucose at 15 min point obtained in the absence of indicated reagent] − [plasma glucose at 15 min point obtained in the presence of indicated reagent]. The decreased in glucose AUC0–120 was expressed by subtracting the AUC0–120 in the presence of f indicated reagent rom that in the absence of indicated reagent. ∆ AUC0–120 (mmol/l x min) = [AUC0–120 in the absence of indicated reagent] − [AUC0–120 in the presence of indicated reagent].
(§1) Values for each experimental group are presented as mean ± SEM. Statistics were performed using Student’s t-test and one-way analysis of variance (ANOVA). Significance levels shown in the figures are: * P < 0.05, ** P < 0.01 and *** P < 0.001 as well as ^# P < 0.05, ^## P < 0.01 and ^### P < 0.001. A P-value of less than 0.05 was considered significant. Student’s t-test that is used to compare the means of two groups and one-way ANOVA is used to compare the means of more than two groups. Five mice per group were used for the in vivo studies. The in vivo studies were performed at least twice. The in vitro assays were triplicates of three independent experiments.

GLP-1R [2] = assay: BRET / real-time intracellular cAMP response assay, GLP-1R; assay type: cell-based
Excerpt: Figure 7 Hypoglycemic action of [Aib8, E22, E30]-GLP-1(7–36) amide was not affected by N55. (a) Sequence alignment of GLP-1(7–36) amide, Ex-4 and mutant peptide. G22 and A30 (purple alphabets) are non-homologous residues between GLP-1(7–36) amide and Ex-4. These residues in GLP-1(7–36) amide were replaced with E (red alphabets), the corresponding residues (blue alphabets) in Ex-4, to generate DPP4-resistant GLP-1 mutant peptide ([Aib8, E22, E30]-GLP-1(7–36) amide). Effect of N55 on cAMP responses to the titration of (b) [Aib8, E22, E30]-GLP-1(7–36) amide and GLP-1′. Values are means ± SEM of triplicate assays from three independent experiments. Dose effect of [Aib8, E22, E30]-GLP-1(7–36) amide on (c) plasma glucose levels and on (d) glucose AUC0–120. Dose effect of N55 on (e) the hypoglycemic response and on (f) glucose AUC0–120 of 16.2 nmol/kg of [Aib8, E22, E30]-GLP-1(7–36) amide. Indicated doses of [Aib8, E22, E30]-GLP-1(7–36) amide and N55 were i.p. administered to group of fasted mice (n = 5) 15 min before the glucose loading (2 g/kg) of the IPGTT. Values are mean ± SEM for groups of five mice. * P < 0.05, ** P < 0.01 and *** P < 0.001 were comparisons of indicated dose of [Aib8, E22, E30]-GLP-1(7–36) amide vs control (c,d). NS, not significant.
The real-time intracellular cAMP assay was performed as previously described.
as §1

mice = assay: Plasma insulin during IPGTT; assay type: in vivo, Female C57BL/6 mice
Excerpt: (§2) All animal procedures were approved by the Institute of Biomedical Sciences Animal Care and Use Committee (Academia Sinica, Taiwan). The Experimental Animal Committee, Academia Sinica, Taiwan approved all animal experimental procedures. All animals were carefully looked after to ensure that their welfare were well looked after. Additionally, all the experimental procedures and the reagents used in this manuscript have been approved by The Ethic Committee, Academia Sinica. […]
(§3) All experiments were performed at approximately 1 PM. […] Plasma glucose was monitored using a glucometer (Accu-Check Performa, Roche, Basel, Switzerland). Glucose AUC0–120 was calculated during the 120-min time interval from IPGTT results. […] The decrease in plasma glucose was calculated by subtracting the plasma glucose in the presence of indicated reagent from that in the absence of indicated reagent; ∆ Plasma Glucose (mmol/l) = [plasma glucose at 15 min point obtained in the absence of indicated reagent] − [plasma glucose at 15 min point obtained in the presence of indicated reagent]. […]
Blood samples were collected from the tail vein before any drug administration and at 15 and 60 min after i.p. glucose loading (time 0). […] Plasma insulin levels were determined by a mouse insulin enzyme-linked immunosorbent assay kit (10–1247–01, Mercodia, Sweden) according to the manufacturer’s protocols. […]

non-fasted mice = assay: IPGTT, non-fasted mice (plasma glucose, glucose AUC0–120); assay type: in vivo, Female C57BL/6 mice; settings: Ex-9 without N55 (1530 without Ex-9), mean, n = 5
Excerpt: as §2, with “Sinica. All methods were performed in accordance with the relevant guidelines and regulations by the Institute of Biomedical Sciences Animal Care and Use Committee (Academia Sinica, Taiwan) and The Ethic Committee (Academia Sinica, Taiwan).” for “Sinica.”
as §3

[3] = Ex-9 with GLP-1′ 5.4 nmol/kg, with or without N55, n = 5

exendin-4 [Ex-4]
stimulation of GLP-1R in vitro by Ex-4 (GLP-1R [1]): stimulated GLP-1R in vitro
glucose AUC0–120 (fasted mice; Ex-4 5.4 nmol/kg i.p. (decreased from 1500), mean, n = 5): 780 mmol/l x min glucose
decrease in glucose level, dose dependence (fasted mice; Ex-4 i.p., n = 5): depended on the dose of Ex-4
glucose AUCs, dose dependence (fasted mice; Ex-4 i.p., n = 5): decreased as dose of Ex-4 increased
glucose tolerance (fasted mice; Ex-4 i.p., n = 5): greatly improved the glucose tolerance

HAibEGTFTSDVSSYLEEQAAKEFIEWLVKGR-NH2 [[Aib8, E22, E30]-GLP-1(7–36) amide, DPP4-resistant GLP-1 mutant peptide]
response to N55 (cAMP) (GLP-1R [2]; titration of peptide with N55, triplicate assays from three independent experiments): failed to respond to N55
potency in stimulating GLP-1R (cAMP) (GLP-1R [2]; titration, compared with GLP-1′, triplicate assays from three independent experiments): displayed comparable potency in stimulating GLP-1R
glucose AUCs during IPGTT (fasted mice; mutant peptide i.p., n = 5): decreased glucose AUCs
plasma glucose during IPGTT (fasted mice; mutant peptide i.p., n = 5): dose-dependently lowered the plasma glucose

HAibEGTFTSDVSSYLEGQAAKEFIAWLVKGR-NH2 [GLP-1′, [Aib8]-GLP-1(7–36) amide, DPP4-resistant GLP-1 peptide]
15-min plasma insulin level (mice; fasted mice, GLP-1′ without N55, 15 min after glucose loading, mouse insulin ELISA, mean, n = 5): 1.44 µg/L
glucose tolerance (fasted mice; GLP-1′ 0.2 nmol/kg alone i.p., n = 5): did not affect the glucose tolerance at all
contribution to improvement of glucose excursion in presence of Ex-9 (fasted mice; GLP-1′ 5.4 nmol/kg + Ex-9, without N55): non-detectable level
15-min plasma glucose level (fasted mice; GLP-1′ 5.4 nmol/kg i.p. without N55, mean, n = 5): 18 mmol/L
glucose excursion (AUC0–120) (fasted mice; GLP-1′ 5.4 nmol/kg i.p., n = 5): significantly improved
glucose tolerance (fasted mice; GLP-1′ 5.4 nmol/kg i.p., n = 5): significantly improved the glucose tolerance
contribution of GLP-1′ to improvement of glucose excursion (AUC0–120 with Ex-9 minus without Ex-9) (fasted mice; GLP-1′ 5.4 nmol/kg without N55): 250 mmol/l x min glucose
glucose AUC0–120 (fasted mice; GLP-1′ 5.4 nmol/kg without N55, without Ex-9): 1270 mmol/l x min glucose

exendin-(9–39) [Ex-9]
glucose AUC0–120 (non-fasted mice): 2070 mmol/l x min glucose
plasma insulin level with Ex-9 (mice; 15 and 60 min after glucose loading, Ex-9 treated non-fasted and fasted mice): 0.36 to 0.65 µg/L
effect of Ex-9 on GLP-1′ glucose lowering and N55 enhancement (fasted mice; [3]): completely eliminated the glucose lowering effect of GLP-1′ and the enhancement effect of N55
glucose AUC0–120 in all Ex-9 treated mice (fasted mice; [3]): ~1520 mmol/l x min glucose
plasma glucose level in Ex-9 treated mice (fasted mice; [3]): 22 mmol/L

[E22, E30] GLP-1 (7–36) amide
activation of receptor by point mutant of GLP-1 (GLP-1R [2]; point mutant without Aib8): retained ability to activate the receptor
response of point mutant of GLP-1 to N55 in vitro (GLP-1R [2]; point mutant without Aib8): not responsive to the enhancement of N55 in vitro
